Assay results from publication PMC13372822 (The EMBO Journal, 2026).
Where a name gives a salt, the structure may show the parent alone.

Key:
[1] = system: OXGR1 mutants (variant named in the endpoint); test: Calcium mobilization assay, OXGR1 mutants in HEK293; details: for Emax: each ligand normalized to WT (100%);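 as to all read-outs here: human OXGR1 variants transiently expressed in HEK293 cells, with intracellular calcium read out by Fluo-4 AM fluorescence, measured 24 h after transfection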
Description: (§1) The full-length human SUCR1 and mutations were fused after the HA signal peptide and Flag tag. The constructs were cloned into pcDNA6.0 vector for HEK293 system.
(§2) HEK293 cells were obtained from ATCC (Manassas, VA, USA) and cultured in DMEM supplemented with 10% (v/v) FBS, 100 mg/L penicillin, and 100 mg/L streptomycin in 5% CO2 at 37 °C. For transient transfection, ~2.5 × 10^6 cells were mixed with 2 µg plasmids in 200 µL transfection buffer, and electroporation was carried out with a Scientz-2C electroporation apparatus (Scientz Biotech, Ningbo, China). The experiments were carried out 24 h after transfection. HEK293 cell lines stably expressing Gα16 were constructed by our laboratory.
(§3) For OXGR1, plasmids were transfected into HEK293 (other receptors were transfected into HEK293 stably expressing Gα16) and seeded at a density of 4 × 10^4 per well into 96-well culture plates and incubated for 24 h at 37 °C in 5% CO2. The next day, Cells were incubated with 2 μM/L Fluo-4 AM in HBSS supplemented with 5.6 mM/L D-glucose and 250 μM/L sulfinpyrazone at 37 °C for 45 min. […] Three independent measurements were repeated, i.e., three different transfections, with three technical replicates performed for each experiment. EC50 and Emax values for each curve were calculated by Prism 8.0 software (GraphPad Software).

[2] = system: mock-transfected HEK293 cells; test: Calcium assay in mock-transfected (empty vector) HEK293 cells; assay type: cell-based
Text: Figure. R3 | Activity of the compounds on OXGR1 using calcium assays.
Concentration-response curves of the four agonists in activating OXGR1 through the calcium assays. HEK293 cells were transfected with OXGR1 or empty vector by electroporation.
Cells were then loaded with Fluo-4 AM and intracellular calcium changes after stimulation with different compounds were monitored. Responses were normalized to 100% for the maximal response of each compound on OXGR1. Data are mean ± S.E.M. from three independent experiments (n = 3), with three technical replicates performed for each […]
(1 picture or pasted object on this page, not shown here)

OXGR1 = OXGR1 (Homo sapiens, UniProt Q96P68); test: Calcium mobilization assay (Fluo-4 AM), wild-type OXGR1 in HEK293
Description: as §1, §2, §3

SUCR1 = molecular target: T1, SUCR1 (Homo sapiens, UniProt Q9BXA5); test: Calcium mobilization assay, wild-type SUCR1 in HEK293 stably expressing Gα16; assay type: cell-based;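 as to Emax: percent of the maximal response to succinate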
T1 construct: The full-length human SUCR1 and mutations were fused after the HA signal peptide and Flag tag; HA signal peptide (N); Flag (N); expressed in transfected cells; host or cells: HEK293 stably expressing Gα16 (pcDNA6.0, transient electroporation)
T1 sequence (Q9BXA5 1-334): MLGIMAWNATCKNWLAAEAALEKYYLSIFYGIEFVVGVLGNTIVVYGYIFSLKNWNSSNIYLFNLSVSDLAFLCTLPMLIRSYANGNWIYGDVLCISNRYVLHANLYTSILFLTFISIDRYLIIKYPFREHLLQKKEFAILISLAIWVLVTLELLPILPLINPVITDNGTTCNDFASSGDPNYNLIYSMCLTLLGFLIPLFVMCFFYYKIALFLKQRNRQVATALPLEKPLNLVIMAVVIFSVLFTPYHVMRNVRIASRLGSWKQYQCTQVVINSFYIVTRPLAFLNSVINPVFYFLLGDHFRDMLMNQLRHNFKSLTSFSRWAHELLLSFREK
Description: as §1, §2, §3

O=C(O)/C=C\C(=O)O [MA, maleate]
EC50 ([1]; OXGR1 D185A): > 1000 µM
Emax ([1]; OXGR1 D185A): 11± 3 WT%
Emax ([1]; OXGR1 E97A): 79± 7 WT%
EC50 ([1]; OXGR1 F113A): > 1000 µM
Emax ([1]; OXGR1 F113A): 5.1± 10 WT%
EC50 ([1]; OXGR1 F113W): 1000 ± 370 µM
increase in potency by F113W mutation ([1]; OXGR1 F113W versus WT): ~ 2 fold
Emax ([1]; OXGR1 F113W): 99± 14 WT%
EC50 ([1]; OXGR1 F257A): > 1000 µM
Emax ([1]; OXGR1 F257A): 6.6± 7 WT%
EC50 ([1]; OXGR1 F257Y): 1900 ± 300 µM
Emax ([1]; OXGR1 F257Y): 93± 2 WT%
EC50 ([1]; OXGR1 H114A): 4200 ± 300 µM
Emax ([1]; OXGR1 H114A): 79± 4 WT%
EC50 ([1]; OXGR1 H114L): > 1000 µM
Emax ([1]; OXGR1 H114L): -4.4± 2 WT%
Emax ([1]; OXGR1 H281A): 67±4 WT%
EC50 ([1]; OXGR1 I172A): > 1000 µM
Emax ([1]; OXGR1 I172A): 11± 2 WT%
EC50 ([1]; OXGR1 L36A): > 1000 µM
Emax ([1]; OXGR1 L36A): 10± 3 WT%
EC50 ([1]; OXGR1 L89A): > 1000 µM
Emax ([1]; OXGR1 L89A): 6.9± 1 WT%
EC50 ([1]; OXGR1 L186A): > 1000 µM
Emax ([1]; OXGR1 L186A): 14± 2 WT%
EC50 ([1]; OXGR1 L186F): > 10000 µM
Emax ([1]; OXGR1 L186F): 58± 4 WT%
EC50 ([1]; OXGR1 L299P): > 1000 µM
Emax ([1]; OXGR1 L299P): 7.8±3 WT%
activation of OXGR1 L299P ([1]; OXGR1 L299P, in words): abolished
EC50 ([1]; OXGR1 M168I): 3200 ± 300 µM
Emax ([1]; OXGR1 M168I): 71± 0.9 WT%
EC50 ([1]; OXGR1 N28A): 580 ± 30 µM
Emax ([1]; OXGR1 N28A): 120± 2 WT%
EC50 ([1]; OXGR1 R110A): > 1000 µM
Emax ([1]; OXGR1 R110A): -4.4± 2 WT%
EC50 ([1]; OXGR1 R110E): > 10000 µM
Emax ([1]; OXGR1 R110E): 36± 30 WT%
EC50 ([1]; OXGR1 R110Q): > 1000 µM
Emax ([1]; OXGR1 R110Q): 14± 5 WT%
Emax ([1]; OXGR1 R177A): 130± 8 WT%
EC50 ([1]; OXGR1 R264A): > 10000 µM
Emax ([1]; OXGR1 R264A): 54± 5 WT%
EC50 ([1]; OXGR1 R268A): > 1000 µM
Emax ([1]; OXGR1 R268A): 22± 4 WT%
EC50 ([1]; OXGR1 R288A): > 1000 µM
Emax ([1]; OXGR1 R288A): -2.1±4 WT%
EC50 ([1]; OXGR1 R288E): > 1000 µM
EC50 ([1]; OXGR1 R288Q): > 1000 µM
Emax ([1]; OXGR1 R288Q): 16±2 WT%
EC50 ([1]; OXGR1 Y40A): > 1000 µM
Emax ([1]; OXGR1 Y40A): -1.9± 6 WT%
EC50 ([1]; OXGR1 Y93A): > 1000 µM
Emax ([1]; OXGR1 Y93A): 17± 20 WT%
EC50 ([1]; OXGR1 Y284A): > 1000 µM
Emax ([1]; OXGR1 Y284A): 4.8±4 WT%
activity in mock-transfected cells [2]: no activity
EC50 (OXGR1; EC50, OXGR1 WT, mutant series (Appendix Table S4)): 2000 ± 400 µM
Emax (OXGR1; HEK293, OXGR1 WT, each ligand normalized to WT (100%)): 100 ± 4%
activity in OXGR1-transfected HEK293 cells (OXGR1; in words): robust activity
Emax (SUCR1; HEK293, SUCR1 WT, Emax relative to the SUC, read-out: Emax): 89 ± 1%
EC50 (SUCR1; SUCR1 WT): 210 ± 70 µM
